Series [1] deals with [Ca^2+]i in U87 glioma cells. The experiment in a line: [Ca2+]i in U87 glioma cells loaded with fura-2AM, quantitative fluorescent microscopy. The series is classed as cell-based, human. To be noted: U87 glioma cells. As for the experimental part:
Therefore, the levels of [Ca^2+]i in U87 glioma cells loaded with fura-2AM were measured using quantitative fluorescent microscopy. […] The ATP-dependent calcium regulatory mechanisms within U87 glioma cells containing fura-2 were then examined. […] ATP synthase operates in reverse when milimolar concentrations of calcium are stored by the mitochondrion (Nicholls, Bioenergetics, 3, Academic Press, London, 3rd edition (2002)).
Quantitative fluorescent microscopy of [Ca^2+]i levels. [Ca^2+]i levels can be measured in cells loaded with either fura-2A or fura-2FFAM under the conditions described above.

The subject of series [2] is U87 glioma cells. Description: Glioma cell proliferation, manual cell counts with trypan blue. The format is cell-based, human. To be noted: glioma cells. As for the experimental part:
C(5)-amiloride glycine conjugate (C5am-Gly) inhibits NHE1 in U87 glioma cells and is antiproliferative. […] The inhibitory activity of C5am-Gly against NCX was tested and a systematic log dose screen of C5am-Gly against a panel of glioma cells and primary astrocytes was performed.
Manual cell counts with dye exclusion assays. Identical concentrations of glioma cells can be plated on 60 mm dishes and grown until 50% confluent. Following drug treatments, media containing floating cells can be collected in suspension. Adherent cells can be rinsed in calcium- and magnesium-free phosphate-buffered saline (PBS-CMF) and removed by incubation with 0.25% v/v trypsin for 5 minutes (37° C.). Cell suspensions can be combined with the floating fraction and centrifuged at 350×g for 5 minutes. The resulting pellet (one per dish) can be resuspended in equal volumes of PBS-CMF with 0.4% trypan blue and/or 500 nM Sytox Green. 10 μL aliquots of the suspension can be plated on a hemocytometer, and cells can be counted 5 minutes after staining. Simultaneous staining of cells with trypan (TB) and Sytox Green (SG) can be visualized by switching between visible light and fluorescein green.

Series [3] relates to NHE1 and NCX. To be noted: NHE1 and NCX inhibitors from the literature; cited from earlier work.
The subject of series [4] is U87 glioma cells. The experiment in a line: Glioma cell death, manual cell counts with trypan blue exclusion. To be noted: for Glioma Effect: cytotoxic concentration: glioma cells.
The subject of series [5] is glioma cells and primary astrocytes. Description: Cell entry by confocal microscopy. The series is classed as in vitro ADME.
Series [6] concerns U87 cells. The experiment in a line: Intracellular translocation into U87 cells by fluorescence microscopy. To be noted: 50 μM; 90 and 180 min; 380 nm excitation, 510 nm emission. The text has this:
Fluorescence Microscopy. […] Excitation light was provided by a xenon arc lamp coupled to the Polychrome IV scanning monochromator (Till Photonics; Grafelfing, Germany) that alternately excites with different wavelengths. Excitation light was delivered by fiber optics to cells through the epifluorescence port of a Nikon E600 microscope coupled to a Nikon Fluor 60× water immersion lens. The detector was an Orca II-ER CCD digital camera (Hamamatsu USA; Bridgewater, N.J.), which is controlled by C-Imaging Simple PCI software (Compix; Cranberry Township, Pa.).
Intracellular emission intensities were collected in regions of interest (ROI) from an average of 4-8 cells/field using Simple PCI imaging software. […] Images were captured as TIFF files (C-imaging Simple PCI software), and light and fluorescent images of the same field were imported in Photoshop 6.0 and vector graphics added using Illustrator 9.0.1 (Adobe; San Jose, Calif.).

The target in series [7] is NHE1 (Homo sapiens, UniProt P19634). The experiment in a line: NHE1 inhibition: sodium-dependent pHi recovery in BCECF-loaded U87 glial cells after ammonium chloride pre-pulse. The format is cell-based. On the set-up: Sodium-dependent proton extrusion in U87 glial cells and in primary astrocytes is mediated by the type 1 sodium proton exchanger (NHE1); endogenous in cells; host or cells: U87 human glioma cells. The procedure:
Intracellular pH Measurements. U87 glial cells were grown on glass coverslips and incubated for 30 minutes at 37° C. with the pH-sensitive dye, 2′,7′-bis(2-carboxyethyl)-5(6)-carboxyfluorescein-AM (BCECF-AM; Molecular Probes, OR). Cells were rinsed with HEPES Ringer buffer twice and maintained at 37° C. for an additional 15 minutes to permit intracellular hydrolysis of the AM ester; trapping BCECF within the cells. Cells on coverslips were placed in a Hitachi F2000 fluorescent spectrophotometer and excited at 440 and 507 nm with fluorescent emissions recorded at 535 nm (Hegde et al., J. Pharmacol. Exp. Ther., 310:67-74 (2004)).
NHE inhibition by compounds 3a and 3c was evaluated using intracellular pH (pHi) measurements in the U87 human glial cell line (Hegde et al., supra). Cells loaded with BCECF were then acidified using the ammonium chloride pre-pulse method (Roos et al., Physiol Rev, 61:296-434 (1981)). The subsequent sodium-dependent recovery of pHi by these cells in the absence of bicarbonate was monitored using a spectrofluorometer. Sodium-dependent proton extrusion in U87 glial cells and in primary astrocytes is mediated by the type 1 sodium proton exchanger (NHE1) (McLean et al., supra; Hegde et al., supra) and was monitored in the presence or absence of compound 3a or 3c.
IC50 drug determinations for NHE1. This method utilizes spectrofluorometric measurements of [H^+]i as described above. The ammonium chloride prepulse method can be used to acidify cells in the presence of HR that is sodium-substituted with NMDG. Perfusion of the acidified cells with HR that contains sodium causes activation of NHE1 that is inhibited in a concentration-dependent fashion as described in McLean et al., supra.

Series [8] relates to enkephalinase (endopeptidase 24.11). Description: Enzyme digestion with enkephalinase, LC-MS/ESI. To be noted: for Conclusion (Peptidase: Enkephalinase): 10 μM conjugate, 10 units enzyme, 25° C., pH 7.4, 24 h; for Cleavage by enkephalinase (release of compound 3a): 24 h incubation, LC-MS. The format is in vitro ADME, porcine. The procedure:
(§1) Compound 3b is a C5am-Gly-peptide conjugate containing two D-amino acids, and compound 3c is a C5am-Gly-peptide conjugate coupled to a peptide to generate an analog of opioid peptides that cross the blood brain barrier (BBB). The resultant conjugates (compounds 3a-c) were tested for selective cleavage by the brain peptidase enkephalinase (neutral endopeptidase 24.11; Calbiochem) via incubation for 24 h in the presence or absence of the enzyme, and aliquots from the reaction solutions were then analyzed by LC-MS to identify the C5am-Gly conjugate (compound 3a), starting material, and enzymatic cleavage products (see, Scheme 3). As negative control experiments, the conjugates were analyzed following treatment with (1) bovine pancreatic trypsin (Calbiochem) or (2) the buffer solutions without enzymes.
(§2) Enzyme digestion. Endopeptidase 24.11 (neutral, porcine kidney) and trypsin (bovine pancreas) were purchased from CalBiochem (San Diego, Calif.) and used as received. Enzymatic cleavage experiments using endopeptidase 24.11 were conducted at 25° C. in a pH 7.4 Tris buffer (150 mM NaCl, 50 mM Tris, 0.1% Triton X-100) as recommended by the manufacturer (see also, Barnes et al., J. Neurochem., 64:1826-1832 (1995), Gafford et al., Biochemistry, 22:3265-3271 (1983)). Similarly, trypsin cleavage experiments were conducted at 25° C. in pH 7.4 Dulbecco's phosphate buffered saline (Gibco; Grand Island, N.Y.). The digestion reactions included 10 μM of the amiloride-peptide conjugate and 10 units of enzyme in 250 μL of buffer. Direct aliquots were analyzed by LC-MS/ESI following a 24 hour incubation period.
(§3) Enzyme Digestion Study. Compounds 3a-d were each incubated at 25° C. with 10 units of enkephalinase (endopeptidase 24.11) to determine their susceptibility towards enzymatic cleavage. Reaction aliquots were taken following a 24 hour incubation period and analyzed directly by LC-MS/ESI (Thermo Finnigan LCQ) for the presence of the starting material and the targeted cleavage product, compound 3a (C5am-Gly). […] Since there are no basic amino acid residues in compounds 3a-d, trypsin was employed as a negative control to ensure that any observed cleavage products could be ascribed only to endopeptidase-specific interactions (Jackson, Protein Science, 8:603-613 (1999)).

Series [9] deals with T1, trypsin (Bos taurus, UniProt P00760).
T1 construct: purchased CalBiochem (San Diego, Calif.); host or cells: bovine pancreas
T1 sequence (P00760 24-246): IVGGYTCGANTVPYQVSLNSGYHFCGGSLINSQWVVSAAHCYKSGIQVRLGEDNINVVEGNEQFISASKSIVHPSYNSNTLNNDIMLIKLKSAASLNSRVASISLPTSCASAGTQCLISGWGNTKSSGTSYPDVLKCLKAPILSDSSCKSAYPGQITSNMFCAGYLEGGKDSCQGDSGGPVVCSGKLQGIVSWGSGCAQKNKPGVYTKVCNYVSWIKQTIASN
Description: Enzyme digestion with trypsin (negative control), LC-MS/ESI. The note with it: for Conclusion (Peptidase: Trypsin): 10 μM conjugate, 10 units enzyme, 25° C., pH 7.4, 24 h. The series is classed as in vitro ADME, bovine. The procedure: as §1, §2, §3

Entries after “also recorded” stand apart in the source; their conditions may differ. Read-outs that look alike come from different tables or passages of the source. Starred links: 1 amine or outer side, 2 acyl side, 3 side chain; linkers in the order of their positions; H or OH if unused. Non-standard residues stand in square brackets, D forms with d. Residues, ends and D or L forms follow the SMILES beside them. No end group written: not given here. X1 = N=C(N)NC(=O)c1nc(Cl)c(N(CC(=O)[*:2])[*:1])nc1N

NHE1, sequence (P19634 whole entry): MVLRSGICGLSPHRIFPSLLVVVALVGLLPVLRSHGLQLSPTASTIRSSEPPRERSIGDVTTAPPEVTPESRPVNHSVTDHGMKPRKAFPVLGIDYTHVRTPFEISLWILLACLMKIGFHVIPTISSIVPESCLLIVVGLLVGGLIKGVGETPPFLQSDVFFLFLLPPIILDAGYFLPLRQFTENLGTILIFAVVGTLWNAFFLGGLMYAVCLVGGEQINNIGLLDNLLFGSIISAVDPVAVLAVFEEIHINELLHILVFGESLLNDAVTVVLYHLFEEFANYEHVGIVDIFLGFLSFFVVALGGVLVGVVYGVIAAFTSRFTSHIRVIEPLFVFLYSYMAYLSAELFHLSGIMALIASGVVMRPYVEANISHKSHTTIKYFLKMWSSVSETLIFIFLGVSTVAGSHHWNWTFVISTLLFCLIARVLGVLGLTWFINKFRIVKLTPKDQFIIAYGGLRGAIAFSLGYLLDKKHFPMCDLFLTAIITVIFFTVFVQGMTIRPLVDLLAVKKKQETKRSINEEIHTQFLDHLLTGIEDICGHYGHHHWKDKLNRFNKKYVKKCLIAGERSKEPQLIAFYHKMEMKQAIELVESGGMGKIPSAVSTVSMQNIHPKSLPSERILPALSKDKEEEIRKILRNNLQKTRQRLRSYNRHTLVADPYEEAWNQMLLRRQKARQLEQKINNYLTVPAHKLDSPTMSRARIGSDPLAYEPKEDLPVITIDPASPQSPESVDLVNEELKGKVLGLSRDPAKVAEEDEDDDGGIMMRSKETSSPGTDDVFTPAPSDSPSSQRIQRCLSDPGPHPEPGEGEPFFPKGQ

With `CC[C@H]1/C=C/C=C/C[C@@H](C)[C@H](O)[C@@](C)(O)C(=O)[C@@H](C)[C@H](O)[C@@H](C)C(=O)[C@@H](C)[C@H](O)[C@@H](C)/C=C/C(=O)O[C@@H]2[C@H](C)[C@H](CC1)O[C@]1(CC[C@H](C)[C@H](C[C@@H](C)O)O1)[C@H]2C` [oligomycin], in [1] (F0F1ATPase inhibition), the “[Ca2+]i transients” value is given as over 800 nM.

With `N=C(N)SCCc1ccc(OCc2ccc([N+](=O)[O-])cc2)cc1` [KB-R7943], the “Glioma Effect: antiproliferative concentration” value in series [2] is “not antiproliferative”. The “Effect of pretreatment on [Ca2+]i after calcium release from mitochondrial stores” value in [1] (FCCP or oligomycin) is “did not cause a persistent increase”. Further, the “Rel. Activity” value in [3] is “NCX > NHE (blocks Ca^2+ influx)”. For the same molecule, the “Glioma Effect: cytotoxic concentration” value in [4] is on record as “not cytotoxic”. Besides, in series [4] (manual cell counts, trypan blue cell exclusion assay), the “Cytotoxicity to glioma cells” value is recorded as “non-toxic”.

In the case of `CCOc1ccc(Oc2ccc(OCc3cc(F)ccc3F)cc2)c(N)c1` [SEA0400], the “Rel. Activity” value in [3] is recorded as “NCX only no NHE activity (Ca^2+ influx mode > Ca^2+ efflux mode)”.

For the molecule `N=C(NC(=O)CN)NC(=O)c1nc(Cl)c(N)nc1N` [C2am-Gly], the “Effect on [Ca2+]i” value in series [1] is given as “increased”. The “Cell entry by confocal microscopy” value in [5] is “not visualized entering”. In series [4], the “Potency of killing glioma cells relative to amiloride” value is on record as “greater than 50 times” and the “Glioma Effect: cytotoxic concentration” value is recorded as “≦10 μM cytotoxic”. Also, the “Concentration that killed U87 glioma cells” value in [4] (U87 glioma cells, C2am-Gly within 24 h) is at most 10 µM.

For `C[C@@H]1O[C@@H](O[C@H]2C[C@@H](O)[C@]3(CO)[C@H]4[C@H](O)C[C@]5(C)[C@@H](C6=CC(=O)OC6)CC[C@]5(O)[C@@H]4CC[C@]3(O)C2)[C@H](O)[C@H](O)[C@H]1O` [oubain], the “Effect on [Ca2+]i” value in [1] is recorded as “did not demonstrably alter”.

As to `CCN(c1nc(N)c(C(=O)NC(=N)N)nc1Cl)C(C)C` [EIPA, ethylisopropylamiloride], in series [6], the “Intracellular accumulation in U87 cells” value is listed as “intracellular accumulation; also recorded: rapid cell permeation”. Also, the “Cell entry by confocal microscopy” value in series [5] (C2am-Gly after 90-240 minutes) is reported as “Rapid cell permeation”. Further, the “Reversal of NHE1 inhibition after removal of compound” value in series [7] (U87 cells) was “slow and incomplete recovery”.

Consider `C[C@H](CCC(=O)O)C[C@H](C)C[C@H](C)C(=O)/C=C(\O)[C@H](C)C[C@H](C)C/C=C/[C@@H](C)[C@@H](O)[C@@H](C)[C@@H](O)C[C@@H]1CC[C@@](C)([C@H]2CC[C@@](C)([C@@H](C)O)O2)O1` [Ionomycin], for which, in [4], the “Time to kill glioma cells” value is 90 to 180 min.

In the case of `C/C=C(/C)C(=O)O[C@H]1C(C)=C2[C@H]([C@@H]1OC(=O)CCCCCCC)[C@@](C)(OC(C)=O)C[C@H](OC(=O)CCC)[C@@]1(O)[C@H]2OC(=O)[C@@]1(C)O` [thapsigargin], the “Effect on [Ca2+]i” value in series [1] was “modest and transient increase”.

`CC(C)C[C@H](NC(=O)[C@H](Cc1ccccc1)NC(=O)CNC(=O)CNC(=O)CNC(=O)CNc1nc(N)c(C(=O)NC(=N)N)nc1Cl)C(=O)O` [Compound 3c, C5am-Gly-Gly-Gly-Gly-Phe-Leu-OH] (H-[X1]GGGFL-OH): in series [8], the “Conclusion (Peptidase: Enkephalinase)” value is “Enkephalinase-mediated” and the “Cleavage by enkephalinase (release of compound 3a)” value is on record as “selectively cleaved; also recorded: released compound 3a; also recorded: complete digestion”. The “Conclusion (Peptidase: Trypsin)” value in [9] is given as “Trypsin-mediated cleavage”. Also, the “Cleavage by trypsin (release of compound 3a)” value in series [9] (24 h incubation, LC-MS) is “did not generate C5am-Gly; also recorded: did not release compound 3a”. Further, in [7] (U87 glial cells, sodium-dependent pHi recovery without bicarbonate, read-out: IC50 (μM) +/− SD (NHE inhibition)), the IC50 is over 100 µM.

On to `CS(=O)(=O)O.CS(=O)(=O)c1cc(C(=O)N=C(N)N)ccc1N1CCCCC1` [HOE694], for which the “Effect on [Ca2+]i” value in [1] was “did not alter”.

For “Compound 3d: C(5)-amiloride peptide conjugate prepared according to Scheme 1 with peptide sequence Gly-Gly-Gly-Phe-Leu (GGGFL; not fully specified (N-terminus); printed as Gly-Gly-Gly-Phe-Leu; also: C(5)-amiloride conjugate)”, in [8], the “Conclusion (Peptidase: Enkephalinase)” value is given as “Enkephalinase resistant” and the “Cleavage by enkephalinase (release of compound 3a)” value is recorded as “did not liberate compound 3a”. Further, the “Conclusion (Peptidase: Trypsin)” value in series [9] is reported as “Trypsin resistant”.

The values above are taken from US7863415B2 (The Regents of the University of California, priority 2004, dated 2011).
